Consider 15 compounds from ChEMBL document CHEMBL1156849, “Synthesis, immunosuppressive activity and structure-activity relationship study of a new series of 4-N-piperazinyl-thieno[2,3-d]pyrimidine analogues” (Bioorg Med Chem Lett, 2010).

This assay concerns Lymphocyte. The assay can be described thus: Immunosuppressive activity in lymphocytes by mixed lymphocyte reaction assay. The class given is functional, cell-based.
Consider `Nc1nc(N2CCN(C(=O)CCc3ccccc3)CC2)c2cc(-c3ccc(F)cc3)sc2n1`, for which half-maximal inhibition (IC50) required 6990 nM.

Turning to `Nc1nc(N2CCN(C(=O)COc3ccc(F)cc3)CC2)c2ccsc2n1`, the IC50 was 66 nM.

Turning to `Nc1nc(N2CCN(C(=O)COc3ccc(Br)cc3)CC2)c2ccsc2n1`, the IC50 was 320 nM.

On to `Cc1cccc(NC(=O)N2CCN(c3nc(N)nc4sccc34)CC2)c1`, for which the IC50 was found to be 930 nM.

On to `Nc1nc(N2CCN(C(=O)Nc3ccc(Cl)cc3)CC2)c2ccsc2n1`, for which the IC50 amounted to 6700 nM.

On to `CC(C)N(C(=O)N1CCN(c2nc(N)nc3sc(-c4ccc(F)cc4)cc23)CC1)C(C)C`, for which the IC50 came to 8200 nM.

`CN(C(=O)CN1CCN(c2nc(N)nc3sccc23)CC1)c1ccccc1` had an IC50 of 8120 nM.

`Nc1nc(N2CCN(C(=O)C3CCCCC3)CC2)c2cc(-c3ccc(F)cc3)sc2n1` gave an IC50 of more than 10000 nM.

Consider `Nc1nc(N2CCN(C(=O)COc3ccc(Cl)cc3)CC2)c2ccsc2n1`, for which the IC50 worked out at 330 nM.

`Nc1nc(N2CCN(C(=O)COc3ccccc3)CC2)c2ccsc2n1` had an IC50 of 780 nM.

The compound `Cc1cccc(OCC(=O)N2CCN(c3nc(N)nc4sccc34)CC2)c1` registered an IC50 of 210 nM.

Compound `COc1ccc(OCC(=O)N2CCN(c3nc(N)nc4sccc34)CC2)cc1` registered a half-inhibitory concentration (IC50) of 72 nM.

Compound `Nc1nc(N2CCN(C(=O)c3cccnc3)CC2)c2cc(-c3ccc(F)cc3)sc2n1` gave an IC50 of more than 10000 nM.

Compound `Nc1nc(N2CCN(CCOc3ccccc3)CC2)c2ccsc2n1` returned an IC50 of 9640 nM.

Turning to `C/C=C/C[C@@H](C)[C@@H](O)[C@H]1C(=O)N[C@@H](CC)C(=O)N(C)CC(=O)N(C)[C@@H](CC(C)C)C(=O)N[C@@H](C(C)C)C(=O)N(C)[C@@H](CC(C)C)C(=O)N[C@@H](C)C(=O)N[C@H](C)C(=O)N(C)[C@@H](CC(C)C)C(=O)N(C)[C@@H](CC(C)C)C(=O)N(C)[C@@H](C(C)C)C(=O)N1C` [CYCLOSPORINE], the IC50 was 54 nM.
